The values below come from patent US7507727B2, “Substituted quinobenzoxazine analogs and methods of using thereof” (Cylene Pharmaceuticals, Inc., priority 2003, dated 2009).

The structures appear in SMILES notation.

One assay deals with c-Myc template DNA (c-myc quadruplex). The assay is described as follows: Quadruplex binding / stop assay (Taq polymerase arrest, capillary electrophoresis). The settings on record: read-out: S DATA; Table 1D, stop assay data.
Take `CN1CCN(C(=O)c2cn3c4c(c(NCCN5CCOCC5)c(F)cc4c2=O)Oc2ccccc2-3)CC1` [compound 1614]: the IC50 was greater than 15 µM.
Consider `CN1CCCC1CCNC(=O)c1cn2c3c(c(NCCCN4CCOCC4)ccc3c1=O)Oc1cc3ccccc3cc1-2` (centres unmarked) [compound 1529], for which the IC50 is 1.75 µM.
Same read-out and setting: as for `O=C(NCCN1CCCC1)c1cn2c3c(c(SCCc4cnccn4)c(F)cc3c1=O)Oc1cccnc1-2` [compound 1786], the figure is greater than 15 µM; as for `O=C(NCCN1CCCC1)c1cn2c3c(c(N4CCOCC4)c(F)cc3c1=O)Oc1cc(Cl)ccc1-2` [compound 1815], 10 µM; as for `CC(C)N1CCN(c2c(F)cc3c(=O)c(C(=O)N4CCC(NC(=O)OC(C)(C)C)C4)cn4c3c2Oc2ccccc2-4)CC1` (centres unmarked) [compound 1564], greater than 15 µM.
Consider `NC1CCN(c2c(F)cc3c(=O)c(C(=O)NCCc4ccc(O)cc4)cn4c3c2Oc2cc3ccccc3cc2-4)C1` (centres unmarked) [compound 1707], for which the IC50 was greater than 15 µM.
On the same count and under the same terms, for `CCN(CC)CCCC(C)NC(=O)c1cn2c3c(c(N4CC5CCCNC5C4)c(F)cc3c1=O)Oc1ccccc1-2` (centres unmarked) [compound 1729] the value was greater than 15 µM.
The same measure, in the same setting: as for `O=C(NCCN1CCCC1)c1cn2c3c(c(NCC4CCCO4)c(F)cc3c1=O)Oc1cc3ccccc3cc1-2` (centres unmarked) [compound 1734], the figure is 3 µM; as for `CCOC(CCCNc1c(F)cc2c(=O)c(C(=O)NCCC3CCCN3C)cn3c2c1Oc1cc2ccccc2cc1-3)OCC` (centres unmarked) [compound 1674], 0.75 µM.
Still for that read-out and setting: for `CN1CCCC1CCNC(=O)c1cn2c3c(c(NCCCNC(=O)OC(C)(C)C)c(F)cc3c1=O)Oc1cc3ccccc3cc1-2` (centres unmarked) [compound 1689] the value was 1.75 µM; for `CN(C)CCCCNC(=O)c1cn2c3c(c(NCCCN4CCN(C)CC4)c(F)cc3c1=O)Oc1ccccc1-2` [compound 1578], greater than 15 µM.
With `CN1CCCC1CCNC(=O)c1cn2c3c(c(NC4CCS(=O)(=O)C4)c(F)cc3c1=O)Oc1cc3ccccc3cc1-2` (centres unmarked) [compound 1749], the IC50 worked out at 1.95 µM.
The same measure, in the same setting: as for `CN1CCCC1CCNC(=O)c1cn2c3c(c(N4CCN(C(=O)OC(C)(C)C)CC4)c(F)cc3c1=O)Oc1cc(Cl)ccc1-2` (centres unmarked) [compound 1819], the figure is 10 µM; as for `CN(C)CCCCNC(=O)c1cn2c3c(c(NCCCCN(C)C)ccc3c1=O)Oc1cc3ccccc3cc1-2` [compound 1544], 1.75 µM; as for `COc1ccc2[nH]cc(CCNc3c(F)cc4c(=O)c(C(=O)NCCC5CCCN5C)cn5c4c3Oc3cc4ccccc4cc3-5)c2c1` (centres unmarked) [compound 1671], 1.75 µM.
On the same count and under the same terms, for `CN1CCCC1CCNC(=O)c1cn2c3c(c(SCCc4cnccn4)c(F)cc3c1=O)Oc1ccc(Cl)cc1-2` (centres unmarked) [compound 1787] the value was greater than 15 µM.
Regarding `O=C(NCCN1CCCC1)c1cn2c3c(c(NCCN4CCOCC4)c(F)cc3c1=O)Oc1ccccc1-2` [compound 1609], the IC50 is greater than 15 µM.
On the same count and under the same terms, as for `O=C(NCCN1CCCC1)c1cn2c3c(c(N4CCC(c5cnccn5)C4)c(F)cc3c1=O)Oc1ccccc1-2` (centres unmarked) [compound 1724], the figure is 11 µM.
On to `N=C(N)NCCCCNC(=O)c1cn2c3c(c(NCCCN4CCOCC4)c(F)cc3c1=O)Oc1cc3ccccc3cc1-2` [compound 1650], for which the IC50 was determined as 1 µM.
Consider `CN1CCCC1CCNC(=O)c1cn2c3c(c(NCCCN4CCCC4=O)c(F)cc3c1=O)Oc1cc3ccccc3cc1-2` (centres unmarked) [compound 1660], for which the IC50 was 1.8 µM.
Still for that read-out and setting: for `CN1CCCC1CCNC(=O)c1cn2c3c(c(NCC(C)(C)CO)c(F)cc3c1=O)Oc1cc3ccccc3cc1-2` (centres unmarked) [compound 1744] the value was greater than 15 µM; for `COc1ccc(CCNc2c(F)cc3c(=O)c(C(=O)NCCC4CCCN4C)cn4c3c2Oc2cc3ccccc3cc2-4)cc1` (centres unmarked) [compound 1663], 1.75 µM.

Still in this assay, the particulars now being: read-out: Stop Data c-Myc μM; concentration at which 50% of the DNA was arrested (arrested:full-length 1:1).
Consider `O=C(O)c1cn2c3cc4oc5cc([N+](=O)[O-])ccc5[nH]c4cc3oc3c(NCCN4CCCC4)c(F)cc(c1=O)c32` [compound 17], for which the IC50 came out at 0.75 µM.
On the same count and under the same terms, for `CN(C)CCCCNc1c(F)cc2c(=O)c(C(=O)N3CCN(C)CC3)cn3c2c1Oc1cc2c(cc1-3)oc1ccccc12` [compound 164] the value was 1.75 µM; for `O=C(O)c1cn2c3c(c(N4CC5CCCNC5C4)c(F)cc3c1=O)Oc1cc3ccccc3cc1-2` (centres unmarked) [compound 23], 0.75 µM.
The same measure, in the same setting: as for `CC1(C)CC(NC(=O)c2cn3c4c(c(N5CCC(NC(=O)OC(C)(C)C)C5)ccc4c2=O)Oc2cc4ccccc4cc2-3)CC(C)(C)N1` (centres unmarked) [compound 274], the figure is 1.75 µM; as for `CN(C)CCCCNc1c(F)cc2c(=O)c(C(=O)NCCN3CCOCC3)cn3c2c1Oc1c-3ccc2ccccc12` [compound 141], 1.75 µM.
For the compound `O=C(NCCN1CCCC1)c1cn2c3c(c(NCCN4CCCC4)c(F)cc3c1=O)Oc1cc3ccccc3cc1-2` [compound 74], the IC50 was 2.5 µM.
The same measure, in the same setting: as for `CN(C)CCCCNc1c(F)cc2c(=O)c(C(=O)NCCCN3CCOCC3)cn3c2c1Oc1cc2c(cc1-3)oc1ccccc12` [compound 162], the figure is 1.75 µM; as for `CN(C)CCCCNc1c(F)cc2c(=O)c(C(=O)NCCCn3ccnc3)cn3c2c1Oc1c-3ccc2ccccc12` [compound 142], 1.75 µM; as for `CN(C)CCCNc1c(F)cc2c(=O)c(C(=O)NCCC3CCCN3C)cn3c2c1Oc1cc2ccccc2cc1-3` (centres unmarked) [compound 437], 0.75 µM.
Take `CC(C)(C)OC(=O)NC1CCN(c2c(F)cc3c(=O)c(C(=O)NCC[N+](C)(C)C)cn4c3c2Oc2cc3ccccc3cc2-4)C1` (centres unmarked) [compound 188]: the IC50 came out at 1.75 µM.
On to `CC(C)(C)OC(=O)NC1CCN(c2c(F)c(N)c3c(=O)c(C(=O)NCCN4CCOCC4)cn4c3c2Oc2cc3ccccc3cc2-4)C1` (centres unmarked) [compound 229], for which the IC50 worked out at 1.75 µM.
Same read-out and setting: as for `CN1CCCC1CCNC(=O)c1cn2c3c(c(NCCC4CCCN4C)c(F)cc3c1=O)Oc1cc3ccccc3cc1-2` (centres unmarked) [compound 124], the figure is 1.75 µM.
In the case of `CN1CCCC1CCNCC(=O)N[C@@H]1CCN(c2c(F)cc3c(=O)c(C(=O)N4CCCCC4)cn4c3c2Oc2cc3c(cc2-4)oc2ccccc23)C1` (some centres unmarked) [compound 413], the IC50 was 0.75 µM.
With `NC1CCN(C(=O)c2cn3c4c(c(N5CC6CCCNC6C5)c(F)cc4c2=O)Oc2cc4ccccc4cc2-3)C1` (centres unmarked) [compound 282], the IC50 came out at 1.75 µM.
In the case of `CN1CCCC1CCNc1c(F)cc2c(=O)c(-c3nc4ccccc4s3)cn3c2c1Oc1cc2ccccc2cc1-3` (centres unmarked) [compound 114], the IC50 turned out to be 1.75 µM.
On the same count and under the same terms, for `CN1CCN(CCCNC(=O)c2cn3c4cc5c(=O)c6ccccc6c(=O)c5cc4oc4c(N5CCC(N)C5)c(F)cc(c2=O)c43)CC1` (centres unmarked) [compound 91] the value was 2.5 µM; for `O=C(NCCCN1CCOCC1)c1cn2c3c(c(NCCN4CCCC4)c(F)cc3c1=O)Oc1cc3c(cc1-2)oc1ccccc13` [compound 160], 1.75 µM.
The same measure, in the same setting: for `CN1CCCC1CCNc1ccc2c(=O)c(C(=O)NC3CC(C)(C)NC(C)(C)C3)cn3c2c1Oc1cc2ccccc2cc1-3` (centres unmarked) [compound 270] the value was 1.75 µM.
Consider `CN1CCCC1CCNC(=O)c1cn2c3c(c(N)c(F)c(NCCCN4CCOCC4)c3c1=O)Oc1cc3ccccc3cc1-2` (centres unmarked) [compound 191], for which the IC50 stood at 1.75 µM.
As for `CN1CCN(CCCNc2c(F)cc3c(=O)c(C(=O)NCCN4CCOCC4)cn4c3c2Oc2cc3ccccc3cc2-4)CC1` [compound 60], the IC50 was determined as 2.5 µM.
`CC1(C)CC(NC(=O)c2cn3c4c(c(N5CCC(N)C5)c(F)cc4c2=O)Oc2cc4ccccc4cc2-3)CC(C)(C)N1` (centres unmarked) [compound 445]: the IC50 was 0.75 µM.
For `O=C(NCCCN1CCOCC1)c1cn2c3cc4oc5cc([N+](=O)[O-])ccc5[nH]c4cc3oc3c(NCCCN4CCOCC4)c(F)cc(c1=O)c32` [compound 415], the IC50 was 0.75 µM.
In the case of `CN1CCN(CCCNC(=O)c2cn3c4c(c(N5CC6CCCNC6C5)c(F)cc4c2=O)Oc2cc4ccccc4cc2-3)CC1` (centres unmarked) [compound 461], the IC50 is 0.75 µM.
Same read-out and setting: as for `CN1CCCC1CCNc1c(F)cc2c(=O)c(C(=O)NCCN3CCCC3)cn3c2c1Oc1cc2ccccc2cc1-3` (centres unmarked) [compound 488], the figure is 0.5 µM; as for `CN(C)c1c(F)cc2c(=O)c(C(=O)O)cn3c4cc5oc6cc(N)ccc6[nH]c5cc4oc1c23` [compound 10], 1.75 µM; as for `CN(C)CCCCNc1c(F)cc2c(=O)c(C(=O)NCCN3CCCC3)cn3c2c1Oc1c-3ccc2ccccc12` [compound 498], 0.41 µM.
In the case of `CN1CCN(CCCNC(=O)c2cn3c4cc5c(=O)c6ccccc6c(=O)c5cc4oc4c(N5CCC(NC(=O)OC(C)(C)C)C5)c(F)cc(c2=O)c43)CC1` (centres unmarked) [compound 169], the IC50 came out at 1.75 µM.
On the same count and under the same terms, for `CC(C)(C)OC(=O)NC1CCN(c2c(F)cc3c(=O)c(C(=O)NCCc4ccc(N)cc4)cn4c3c2Oc2cc3ccccc3cc2-4)C1` (centres unmarked) [compound 183] the value was 1.75 µM; for `CNC1CCN(c2c(F)cc3c(=O)c(C(=O)NCCC4CCCN4C)cn4c3c2Oc2cc3ccccc3cc2-4)C1` (centres unmarked) [compound 430], 0.75 µM; for `CN1CCCC1CCNC(=O)c1cn2c3c(c(N4CCC(N)CC4)c(F)cc3c1=O)Oc1cc3ccccc3cc1-2` (centres unmarked) [compound 281], 1.75 µM.
For the compound `CN(C)CCCCNc1c(F)cc2c(=O)c(C(=O)NCCCN3CCN(C)CC3)cn3c4cc5c(=O)c6ccccc6c(=O)c5cc4oc1c23` [compound 171], the IC50 worked out at 1.75 µM.
Take `CN1CCCC1CCNc1c(F)cc2c(=O)c(C(=O)N3CC[C@@H](NC(=O)OC(C)(C)C)C3)cn3c2c1Oc1cc2ccccc2cc1-3` (some centres unmarked) [compound 68]: the IC50 came to 2.5 µM.
The same measure, in the same setting: for `COc1ccc(CCNc2c(F)cc3c(=O)c(C(=O)NCCC4CCCN4C)cn4c3c2Oc2cc3ccccc3cc2-4)cc1` (centres unmarked) [compound 286] the value was 1.75 µM; for `CN(C)CCCCNC(=O)c1cn2c3c(c(NCCCN4CCOCC4)c(F)cc3c1=O)Oc1c-2ccc2ccccc12` [compound 129], 1.75 µM; for `CC(=O)N[C@@H]1CCN(c2c(F)cc3c(=O)c(C(=O)NCCC4CCCN4C)cn4c3c2Oc2cc3c(cc2-4)oc2ccccc23)C1` (some centres unmarked) [compound 406], 0.75 µM.
Still for that read-out and setting: as for `CN1CCN(CCCNc2c(F)cc3c(=O)c(C(=O)NCCCN4CCOCC4)cn4c3c2Oc2cc3c(cc2-4)oc2ccccc23)CC1` [compound 149], the figure is 1.75 µM; as for `O=C(NCCCN1CCOCC1)c1cn2c3c(c(NCCCN4CCOCC4)c(F)cc3c1=O)Oc1cc3c(cc1-2)oc1ccccc13` [compound 143], 1.75 µM.
